Among the data in PubChem BioAssay AID2060904 (Molecular Pharmacology Branch, DTP, NCI, 2025) are viability, T/C values, retold here.

Structures are written as SMILES. Values joined by “and” are separate entries in the source; they are usually repeats but may differ in a detail not shown here. Identical values can stand only once.
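Further: spheroids exposed to compound for seven days before viability readout.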

The first test relates to 349418-098-R-PDC complex spheroid viability. Kind of test: Anticancer human tumor 349418-098-R-PDC patient-derived lung adenocarcinoma cell line growth inhibition [RAS]. As to conditions: compound 0.000949 µM; stronger effect = lower value. The text has this:
RAS pathway inhibitors in Combinations in Complex Spheroids
A high-throughput screen of multi-cell type tumor spheroids was designed to identify active combinations of RAS pathway inhibitors and targeted small molecules. Complex spheroids include a stromal component modeled by human endothelial cells (HUVEC) and fibroblasts modeled by human mesenchymal stem cells (MSCs). The concentration ranges selected for each drug and investigational agent were based upon clinically achievable concentrations if the clinical Cmax of the agent was known.
Compounds. The drugs and investigational agents: abemaciclib (NSC768073), cobimetinib (NSC768068), divarasib (GDC6063, NSC841802), docetaxel (NSC628503), GDC-1971 (RLY-1971, NSC841576), gemcitabine (NSC613327), inavolisib (NSC800729), ipatasertib (NSC767898), KB-0742 (NSC834161), MRTX-1133 (NSC836407), osimertinib (NSC779217), RMC-4630 (NSC839698), RMC-6236 (NSC851965), RMC-6291 (NSC852671), Ro-3306 (NSC812927), sapanisertib (NSC764658), SN-38 (NSC673596), staurosporine (NSC755774), SY5609 (NSC837396), and tovorafenib (DAY101, NSC766906), were obtained from the National Cancer Institute (NCI) Developmental Therapeutics Program Chemical Repository. The FDA-approved anticancer drug set is available from the NCI Developmental Therapeutics Program. […] The stock solutions were prepared in dimethyl sulfoxide (DMSO, Sigma-Aldrich, St. Louis, MO, cat. D2650) at 800-fold the tested concentration and stored at -70 degrees C prior to their use. All drugs and investigational agents were tested over a range starting from a high concentration at or near the clinical Cmax and decreasing in half-log increments. If the clinical Cmax for an agent had not been determined, the highest concentration tested was 10 microM.
Cell Culture. All cells were maintained in an incubator at 37 degrees C and 5% CO2 with 95% humidity. The PDC lines were cultured according to standard operating procedures established by the NCI PDMR. All PDCs were thawed and cultured in Matrigel-coated flasks prepared with a working solution of 1X Ham's F-12 nutrient mix, without supplementation (Invitrogen, Waltham, MA, cat. 11765054), 100 U/mL penicillin-streptomycin (Invitrogen, cat. 15140122), and 2.5% Matrigel (Corning Inc., Corning, NY, cat. 354248) for the first three passages. The 362531-283-R-J2-PDC and 782815-120-R-J1-PDC lines were cultured in 6C/Colon 1B media, which includes advanced DMEM/F-12 (Thermo Fisher Scientific, cat. 12634028), 10 mM HEPES (Thermo Fisher Scientific, cat. 15630080), 1X GlutaMAX supplement (Thermo Fisher Scientific, cat. 35050061), 0.1 mg/mL primocin (InvivoGen, San Diego, CA, cat. ant-pm-2), 10% defined fetal bovine serum, heat inactivated (HyClone Laboratories Inc., Logan, UT, cat. SH30070.03HI), 50% L-WRN conditioned media (ATCC, cat. CRL-3276), 1.25 mM N-Acetyl-L-cysteine (Sigma-Aldrich, cat. A9165), 10 mM nicotinamide (Sigma-Aldrich, cat. N0636), 1X B-27 supplement (Thermo Fisher Scientific, cat. 17504044), 1X N-2 supplement (Thermo Fisher Scientific, cat. 17502048), 50 ng/mL human EGF (Thermo Fisher Scientific, cat. PHG0311), and 10 microM Y-27632 dihydrochloride (Tocris Bioscience, cat. 1254). The K12877-001-R-J1-PDC line was cultured in 6I media, which includes all 6C/Colon 1B media plus 10 ng/mL human FGF-10 (PeproTech, cat. 100-26), 1 ng/mL human FGF-2 (PeproTech, cat. 100-18B), 1 µM prostaglandin E2 (Tocris Bioscience, cat. 2296), […] hydrocortisone (Sigma-Aldrich, cat. H4001), and […] bovine insulin (Sigma-Aldrich, cat. I6634). The K86415-001-R-J1-PDC line was cultured in 6D media, which includes all 6C/Colon 1B media components minus the L-WRN conditioned media. The 485176-168-R4-J1-PDC was cultured in PANC media, which includes all 6C/Colon 1B media plus 100 ng/mL human FGF-10 (PeproTech, cat. 100-26), 500 nM SB-431542 (Selleckchem, cat. S1067), and 10 nM gastrin (Tocris Bioscience, cat. 3006). […]
As a reminder, the viability, T/C is the result in the treated group divided by that in the control group, in per cent. `CC1(C)CCC(Nc2ncc(C(F)(F)F)c(-c3c[nH]c4c(P(C)(C)=O)c(C#N)ccc34)n2)CN1` (configuration not stated): the viability, T/C is 65.3% [middle of 4 runs].

As for `CCc1c2c(nc3ccc(O)cc13)-c1cc3c(c(=O)n1C2)COC(=O)[C@]3(O)CC`, the viability, T/C is 82% [middle of 4 runs].

Regarding `CCn1c(-c2cc(N3CCN(C)CC3)cnc2C(C)OC)c2c3cc(ccc31)-c1csc(n1)CC(NC(=O)C1CC1C)C(=O)N1CCCC(N1)C(=O)OCC(C)(C)C2` (configuration not stated), the viability, T/C was 108% [middle of 8 runs].

The test is the same for the next values; noted with them: compound 0.003 µM; stronger effect = lower value.
On to `CC1(C)CCC(Nc2ncc(C(F)(F)F)c(-c3c[nH]c4c(P(C)(C)=O)c(C#N)ccc34)n2)CN1` (configuration not stated), for which the viability, T/C was 24.7% [middle of 4 runs].

As for `CCc1c2c(nc3ccc(O)cc13)-c1cc3c(c(=O)n1C2)COC(=O)[C@]3(O)CC`, the viability, T/C is 39.4% [middle of 4 runs].

On to `CCn1c(-c2cc(N3CCN(C)CC3)cnc2C(C)OC)c2c3cc(ccc31)-c1csc(n1)CC(NC(=O)C1CC1C)C(=O)N1CCCC(N1)C(=O)OCC(C)(C)C2` (configuration not stated), for which the viability, T/C was 103% [middle of 8 runs].

Consider `CCn1c(-c2cccnc2C(C)OC)c2c3cc(ccc31)N1CCOC(CC(NC(=O)C(C(C)C)N(C)C(=O)C3(F)CCN(C(=O)C#CC(C)(C)N(C)C)CC3)C(=O)N3CCCC(N3)C(=O)OCC(C)(C)C2)C1` (configuration not stated), for which the viability, T/C was 111% [middle of 8 runs].

Still in this test, the particulars now being: compound 0.00316 µM; stronger effect = lower value.
For `C=CC(=O)Nc1cc(Nc2nccc(-c3cn(C)c4ccccc34)n2)c(OC)cc1N(C)CCN(C)C`, the viability, T/C was 104% [middle of 4 runs].

As to `CC(C)n1nc(-c2ccc3oc(N)nc3c2)c2c(N)ncnc21`, the viability, T/C was 44.1% (2×) and 55.6% and 55.3%.

Consider `Nc1ccn(C2OC(CO)C(O)C2(F)F)c(=O)n1` (configuration not stated), for which the viability, T/C was 25.7% [middle of 4 runs].

For `O=C(c1ccc(F)c(F)c1Nc1ccc(I)cc1F)N1CC(O)([C@@H]2CCCCN2)C1`, the viability, T/C was 35.9% [middle of 4 runs].

The test is the same for the next values; noted with them: compound 0.00949 µM; stronger effect = lower value.
With `CC1(C)CCC(Nc2ncc(C(F)(F)F)c(-c3c[nH]c4c(P(C)(C)=O)c(C#N)ccc34)n2)CN1` (configuration not stated), the viability, T/C was 15.5% [middle of 4 runs].

Regarding `CCc1c2c(nc3ccc(O)cc13)-c1cc3c(c(=O)n1C2)COC(=O)[C@]3(O)CC`, the viability, T/C is 17.2% [middle of 4 runs].

The test is the same for the next values; noted with them: compound 0.01 µM; stronger effect = lower value.
As for `CC(C)n1nc(-c2ccc3oc(N)nc3c2)c2c(N)ncnc21`, the viability, T/C is 17% [middle of 4 runs].

Regarding `CCN1CCN(Cc2ccc(Nc3ncc(F)c(-c4cc(F)c5nc(C)n(C(C)C)c5c4)n3)nc2)CC1`, the viability, T/C was 59.8% [middle of 4 runs].

Take `Nc1ccn(C2OC(CO)C(O)C2(F)F)c(=O)n1` (configuration not stated): the viability, T/C is 6.96% [middle of 4 runs].

Turning to `O=C(c1ccc(F)c(F)c1Nc1ccc(I)cc1F)N1CC(O)([C@@H]2CCCCN2)C1`, the viability, T/C was 35.3% [middle of 4 runs].

Staying with this test, now noted: compound 0.03 µM; stronger effect = lower value.
As to `CC1(C)CCC(Nc2ncc(C(F)(F)F)c(-c3c[nH]c4c(P(C)(C)=O)c(C#N)ccc34)n2)CN1` (configuration not stated), the viability, T/C was 9.86% [middle of 4 runs].

In the case of `CCc1c2c(nc3ccc(O)cc13)-c1cc3c(c(=O)n1C2)COC(=O)[C@]3(O)CC`, the viability, T/C is 6.46% [middle of 4 runs].

For the molecule `CCn1c(-c2cc(N3CCN(C)CC3)cnc2C(C)OC)c2c3cc(ccc31)-c1csc(n1)CC(NC(=O)C1CC1C)C(=O)N1CCCC(N1)C(=O)OCC(C)(C)C2` (configuration not stated), the viability, T/C was 105% [middle of 8 runs].

Still in this test, the particulars now being: compound 0.0316 µM; stronger effect = lower value.
Consider `C#Cc1c(F)ccc2cc(O)cc(-c3ncc4c(N5CC6CCC(C5)N6)nc(OCC56CCCN5CC(F)C6)nc4c3F)c12` (configuration not stated), for which the viability, T/C is 87.2% [middle of 8 runs].

Consider `CC(=O)OC12COC1CC(O)C1(C)C(=O)C(O)C3=C(C)C(OC(=O)C(O)C(NC(=O)OC(C)(C)C)c4ccccc4)CC(O)(C(OC(=O)c4ccccc4)C21)C3(C)C` (configuration not stated), for which the viability, T/C is 14.5% [middle of 4 runs].

For `CC(C)n1nc(-c2ccc3oc(N)nc3c2)c2c(N)ncnc21`, the viability, T/C was 8.74% [middle of 4 runs].

With `CC(Nc1ccc2c(c1)OCCn1cc(N3C(=O)OCC3C(F)F)nc1-2)C(N)=O` (configuration not stated), the viability, T/C was 75.9% [middle of 4 runs].

Regarding `CC1(O)CCCC1n1c(=O)c(C(F)F)cc2cnc(NC3CCN(S(C)(=O)=O)CC3)nc21` (configuration not stated), the viability, T/C is 79.5% [middle of 4 runs].

Consider `CCC(CC)c1cc(NC2CCC(N)C2)n2nccc2n1` (configuration not stated), for which the viability, T/C was 101% [middle of 4 runs].

In the case of `Cc1nc(N2CCC3(CC2)COC(C)C3N)c(CO)nc1Sc1ccnc(N)c1Cl` (configuration not stated), the viability, T/C was 91.6% [middle of 4 runs].

Turning to `NC1c2ccccc2OC12CCN(c1cnc3c(N4CCCc5ncccc54)n[nH]c3n1)CC2` (configuration not stated), the viability, T/C is 102% [middle of 4 runs].

Consider `Nc1ccn(C2OC(CO)C(O)C2(F)F)c(=O)n1` (configuration not stated), for which the viability, T/C was 5.62% [middle of 4 runs].

With `O=C(c1ccc(F)c(F)c1Nc1ccc(I)cc1F)N1CC(O)([C@@H]2CCCCN2)C1`, the viability, T/C was 33% [middle of 4 runs].

The same test, now with this note: compound 0.0949 µM; stronger effect = lower value.
Consider `CC1(C)CCC(Nc2ncc(C(F)(F)F)c(-c3c[nH]c4c(P(C)(C)=O)c(C#N)ccc34)n2)CN1` (configuration not stated), for which the viability, T/C was 8.72% [middle of 4 runs].

In the case of `CCc1c2c(nc3ccc(O)cc13)-c1cc3c(c(=O)n1C2)COC(=O)[C@]3(O)CC`, the viability, T/C was 3.27% [middle of 4 runs].

Regarding `CCn1c(-c2cc(N3CCN(C)CC3)cnc2C(C)OC)c2c3cc(ccc31)-c1csc(n1)CC(NC(=O)C1CC1C)C(=O)N1CCCC(N1)C(=O)OCC(C)(C)C2` (configuration not stated), the viability, T/C was 111% [middle of 8 runs].

Staying with this test, now noted: compound 0.1 µM; stronger effect = lower value.
`CC(=O)OC12COC1CC(O)C1(C)C(=O)C(O)C3=C(C)C(OC(=O)C(O)C(NC(=O)OC(C)(C)C)c4ccccc4)CC(O)(C(OC(=O)c4ccccc4)C21)C3(C)C` (configuration not stated): the viability, T/C is 14.6% [middle of 4 runs].

As to `CC(C)n1nc(-c2ccc3oc(N)nc3c2)c2c(N)ncnc21`, the viability, T/C was 7.93% [middle of 4 runs].

Consider `CC(Nc1ccc2c(c1)OCCn1cc(N3C(=O)OCC3C(F)F)nc1-2)C(N)=O` (configuration not stated), for which the viability, T/C is 49.6% [middle of 4 runs].

`CC1(O)CCCC1n1c(=O)c(C(F)F)cc2cnc(NC3CCN(S(C)(=O)=O)CC3)nc21` (configuration not stated): the viability, T/C is 43% [middle of 4 runs].

Take `CCN1CCN(Cc2ccc(Nc3ncc(F)c(-c4cc(F)c5nc(C)n(C(C)C)c5c4)n3)nc2)CC1`: the viability, T/C is 28.7% [middle of 4 runs].

Turning to `Cc1nc(N2CCC3(CC2)COC(C)C3N)c(CO)nc1Sc1ccnc(N)c1Cl` (configuration not stated), the viability, T/C is 102% [middle of 4 runs].

In the case of `Nc1ccn(C2OC(CO)C(O)C2(F)F)c(=O)n1` (configuration not stated), the viability, T/C was 5.46% [middle of 4 runs].

For `O=C(c1ccc(F)c(F)c1Nc1ccc(I)cc1F)N1CC(O)([C@@H]2CCCCN2)C1`, the viability, T/C was 12.2% [middle of 4 runs].

Staying with this test, now noted: compound 0.3 µM; stronger effect = lower value.
As for `CC1(C)CCC(Nc2ncc(C(F)(F)F)c(-c3c[nH]c4c(P(C)(C)=O)c(C#N)ccc34)n2)CN1` (configuration not stated), the viability, T/C is 8.1% [middle of 4 runs].
